Measured values taken from ChEMBL document CHEMBL1128701 (J Med Chem, 1995).
pIC50: −log10 of the molar value.

Target: T1, Progesterone receptor (Homo sapiens, UniProt P06401)
T1 sequence (P06401 whole entry): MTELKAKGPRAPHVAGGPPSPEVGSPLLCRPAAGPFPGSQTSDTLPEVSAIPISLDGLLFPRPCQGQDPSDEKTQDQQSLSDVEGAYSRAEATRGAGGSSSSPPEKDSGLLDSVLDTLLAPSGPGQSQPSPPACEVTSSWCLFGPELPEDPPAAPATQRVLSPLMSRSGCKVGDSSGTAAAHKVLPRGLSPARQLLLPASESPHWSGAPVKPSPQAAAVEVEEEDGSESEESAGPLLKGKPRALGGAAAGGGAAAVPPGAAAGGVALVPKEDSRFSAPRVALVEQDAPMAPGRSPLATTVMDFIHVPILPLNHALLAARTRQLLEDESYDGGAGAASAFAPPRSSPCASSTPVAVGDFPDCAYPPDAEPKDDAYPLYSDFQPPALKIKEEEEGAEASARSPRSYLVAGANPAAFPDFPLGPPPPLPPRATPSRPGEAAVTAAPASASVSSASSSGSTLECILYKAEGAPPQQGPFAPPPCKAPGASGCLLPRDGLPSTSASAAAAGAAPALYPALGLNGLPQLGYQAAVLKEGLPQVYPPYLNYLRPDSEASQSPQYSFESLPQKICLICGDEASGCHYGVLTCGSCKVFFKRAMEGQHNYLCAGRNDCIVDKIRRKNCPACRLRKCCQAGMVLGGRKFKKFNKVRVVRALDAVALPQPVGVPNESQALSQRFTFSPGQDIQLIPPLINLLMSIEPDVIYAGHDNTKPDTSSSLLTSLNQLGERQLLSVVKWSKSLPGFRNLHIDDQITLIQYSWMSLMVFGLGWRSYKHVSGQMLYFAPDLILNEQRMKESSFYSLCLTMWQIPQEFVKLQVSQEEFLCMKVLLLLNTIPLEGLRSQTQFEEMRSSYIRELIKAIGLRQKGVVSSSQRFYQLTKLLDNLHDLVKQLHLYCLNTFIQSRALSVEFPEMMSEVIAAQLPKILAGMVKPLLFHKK
Assay: Binding affinity against Progesterone receptor in human TE85 osteosarcoma cells was determined using (Z)-[125I]-17-alpha-(2-iodovinyl)-19-nor-testosterone as radioligand

Row | SMILES | pIC50
1 | COc1ccc(C2=NN(C(=O)c3ccc(Cl)c(Cl)c3)CCC2)cc1 | < 6.00
2 | COc1ccc(C(=O)N2CCCC(c3ccccc3)=N2)cc1 | < 6.00
3 | O=C(c1ccc(F)c(F)c1)N1CCCC(c2ccccc2)=N1 | 6.29
4 | CCc1ccc(C2=NN(C(=O)c3ccc(Cl)c(Cl)c3)CCC2)cc1 | 6.24
5 | Clc1ccc(CN2CCCC(c3ccccc3)=N2)cc1Cl | < 6.00
6 | CC(C)(C)c1ccc(C(=O)N2CCCC(c3ccccc3)=N2)cc1 | < 6.00
7 | O=S(=O)(c1ccc(Cl)c(Cl)c1)N1CCCC(c2ccccc2)=N1 | < 6.00
8 | O=C(c1ccccc1)N1CCCC(c2ccccc2)=N1 | < 6.00
9 | O=C(c1ccc(Cl)cc1)N1CCCC(c2ccccc2)=N1 | 6.28
10 | O=C(c1ccc(Br)cc1)N1CCCC(c2ccccc2)=N1 | < 6.00
11 | O=C(c1ccc(Cl)c(Cl)c1)N1CC=CC(c2ccccc2)=N1 | < 6.00
12 | CCCCc1ccc(C2=NN(C(=O)c3ccc(Cl)c(Cl)c3)CCC2)cc1 | < 6.00

These reach a higher pIC50. Values come first.

Row | pIC50 | SMILES
13 | 6.57 | O=C(c1ccc(Cl)c(C(F)(F)F)c1)N1CCCC(c2ccccc2)=N1
14 | 7.62 | CC1CCN(C(=O)c2ccc(Cl)c(Cl)c2)N=C1c1ccccc1 (centres undefined)
15 | 7.20 | O=C(c1ccc(Cl)c(Cl)c1)N1CCCC(c2ccccc2)=N1
16 | 7.01 | CC1CC(c2ccccc2)=NN(C(=O)c2ccc(Cl)c(Cl)c2)C1 (centres undefined)
17 | 7.42 | O=C(c1ccc(F)c(Br)c1)N1CCCC(c2ccccc2)=N1
18 | 6.38 | Cc1ccc(C(=O)N2CCCC(c3ccccc3)=N2)cc1
19 | 7.12 | CC1(C)CC(c2ccccc2)=NN(C(=O)c2ccc(Cl)c(Cl)c2)C1
20 | 7.15 | O=C(c1cccc(Cl)c1)N1CCCC(c2ccccc2)=N1
21 | 7.32 | O=C(c1ccc(Cl)c(Cl)c1)N1CCCC(c2ccc(F)cc2)=N1
22 | 7.76 | S=C(c1ccc(Cl)c(Cl)c1)N1CCCC(c2ccccc2)=N1
23 | 7.08 | O=C(c1ccc(Cl)c(Cl)c1)N1CCCC(c2ccc(Cl)cc2)=N1
24 | 6.77 | O=C1CCC(c2ccccc2)=NN1Cc1ccc(Cl)c(Cl)c1
